Test results published in patent publication US11738065B2, “Polypeptides and analogues thereof for use in the treatment of diabetes and bone disorders” (UNIVERSITY OF ULSTER, priority 2015, dated 2023).
Marks after values point to notes of the source that are not given here.

Key:
DPP-4 = molecular target: T1, DPP-4 (Sus scrofa, UniProt P22411); experiment: DPP-4 degradation / in vitro DPP-4 half-life; format: in vitro ADME, porcine; conditions: pig; 37° C., 50 mmol/L TEA-HCl pH 7.8, 5 mU purified porcine DPP-4, 0-12 h
T1 construct: purchased Sigma-Aldrich, Dorset, UK
Protocol: (§1) For calculation of experimental molecular masses, peptide samples (1 μg) were mixed with α-cyano-4-hydroxycinnamic acid (1 μg) and applied to a Voyager-DE BioSpectrometry Workstation and mass-to-charge (m/z) ratio verses peak intensity recorded by MALDI-TOF mass spectrometry. […] Degradation profiles were obtained using rp-HPLC analysis and HPLC peak area data used to calculate percentage intact peptide remaining at each time point.
(§2) Briefly, polypeptides (20 μg) were incubated with 5 μl of purified DPP-4 (5 mU, Sigma-Aldrich, Dorset, UK) in 50 mM TEA-HCl (pH 7.8; final volume 450 μl) at 37° C. for 0, 1, 4 and 12 hours. Enzymatic reactions were terminated by the addition of 50 μl TFA/H2O (10% v/v, Sigma-Aldrich, Dorset, UK). Reaction products were then separated by HPLC and analysed using MALDI-TOF.

purified porcine DPP-4 = molecular target: T2, purified porcine DPP-4 (Sus scrofa, UniProt P22411); experiment: DPP-4 degradation / in vitro DPP-4 half-life; format: in vitro ADME; conditions: incubated in the presence of DPP-4 for up to 12 hs
T2 construct: purchased Sigma-Aldrich, Dorset, UK
Protocol: as §1, §2

high fat fed mice [1] = experiment: Metabolic response to GIP after 21 days treatment; format: in vivo
Protocol: Twice daily (09:30 and 17:30 h) i.p. injections of saline vehicle (0.9% w/v NaCl), polypeptides (at 25 nmol/kg bw) were administered for 21 days in high fat mice. Energy intake and body weight were monitored daily, and non-fasting blood glucose and plasma insulin concentrations were assessed at 3 day intervals. On day 21, a non-fasted 24 h glucose profile was conducted. At the end of the treatment period, i.p. glucose tolerance (18 mmol/kg bw), biological response to GIP (18 mmol/kg glucose in combination with native GIP (25 nmol/kg); i.p.) and insulin sensitivity (15 U/kg bw; i.p.) tests were performed. HOMA-IR was determined using the equation HOMA-IR=fasting glucose (mmol/l)×fasting insulin (mU/l)/22.5. All test solutions were administered in a final volume of 5 ml/kg body weight, at 10:00 h without previous 09:30 h peptide injection. Terminal analysis included measurement of total body fat and lean mass by DEXA scanning (Piximus Densitometer, Inside Outside Sales, Madison Wis., USA) and extraction of pancreatic tissue for analysis as detailed below. Immunohistochemistry Pancreatic tissue was excised, divided longitudinally and either immediately snap frozen for subsequent extraction of insulin using acid ethanol extraction (5 ml/g) as described by Irwin et al., 2015 (Diabetes. 2015 August; 64(8):2996-3009), or processed for immunohistochemical examination. Briefly, pancreatic tissues were fixed in 4% parafolmaldehyde at 4° C. for 48 h. Pancreata were then embedded in paraffin wax and processed using an automated tissue processor (Leica TP1020, Leica Microsystems, Nussloch, Germany). Immunohistochemistry was performed as described by Vasu et al., 2014 (PLoS One. 2014 Jun. 26; 9(6):e101005). Succinctly, tissue sections were deparaffinised, rehydrated and probed with primary antibodies: mouse anti-insulin antibody (1:500; Abcam, ab6995) or guinea-pig anti-glucagon antibody (PCA2/4, 1:400; raised in-house). The sections were then incubated with secondary antibody, Alexa Fluor 488 goat anti-guinea pig IgG (1:400) or Alexa Fluor 594 goat anti-mouse IgG (1:400); respectively. The slides were viewed under a FITC (488 nm) or TRITC filter (594 nm) using a fluorescent microscope (Olympus system microscope, model BX51) and photographed using a DP70 camera adapter system. Islet parameters were analysed using Cell^F image analysis software (Olympus Soft Imaging Solutions, GmbH).
Tests were conducted after twice daily treatment with saline vehicle (0.9% (w/v) NaCl), (DAla^2)GIP and (DAla^2)GIP/xenin-8-Gln (each at 25 nmol/kg bw) for 21 days. For glucose tolerance test, blood glucose and plasma insulin concentrations were measured before and 15, 30, 60 and 105 min after i.p injection of glucose (18 mmol/kg bw). For metabolic response to GIP, blood glucose and plasma insulin concentrations were measured before and 15, 30, 60 and 105 min after i.p injection of glucose (18 mmol/kg bw) in combination with GIP (25 nmol/kg bw). All studies were conducted in 18 h fasted mice. AUC values (0-105 min) for blood glucose and plasma insulin are shown. Values represent means±SEM for 6-8 mice. *P<0.05, **P<0.01, […] compared to high fat controls. ^ΔP<0.05, ^ΔΔP<0.01, ^ΔΔΔP<0.001 compared to lean controls.

high fat fed mice [2] = experiment: Pancreatic insulin content and islet histology after 21 days treatment; format: in vivo
Protocol: On day 21, a non-fasted 24 h glucose profile was conducted. […] HOMA-IR was determined using the equation HOMA-IR=fasting glucose (mmol/l)×fasting insulin (mU/l)/22.5. […] Terminal analysis included measurement of total body fat and lean mass by DEXA scanning (Piximus Densitometer, Inside Outside Sales, Madison Wis., USA) and extraction of pancreatic tissue for analysis as detailed below. […] Briefly, pancreatic tissues were fixed in 4% parafolmaldehyde at 4° C. for 48 h. Pancreata were then embedded in paraffin wax and processed using an automated tissue processor (Leica TP1020, Leica Microsystems, Nussloch, Germany). Immunohistochemistry was performed as described by Vasu et al., 2014 (PLoS One. 2014 Jun. 26; 9(6):e101005). […] Abcam, ab6995) or guinea-pig anti-glucagon antibody (PCA2/4, 1:400; raised in-house). […] The slides were viewed under a FITC (488 nm) or TRITC filter (594 nm) using a fluorescent microscope (Olympus system microscope, model BX51) and photographed using a DP70 camera adapter system. Islet parameters were analysed using Cell^F image analysis software (Olympus Soft Imaging Solutions, GmbH). Blood samples were collected from the cut tip on the tail vein of conscious mice into chilled fluoride/heparin glucose micro-centrifuge tubes (Sarstedt, Numbrecht, Germany) at the time points indicated in the Drawings. Blood glucose was measured directly using a hand-held Ascencia Contour blood glucose meter (Bayer Healthcare, Newbury, Berkshire, UK).

[3] = 0-105 min, glucose 18 mmol/kg + GIP 25 nmol/kg i.p., 18 h fasted, after 21 days treatment, mean ± SEM

T1 sequence (P22411 whole entry): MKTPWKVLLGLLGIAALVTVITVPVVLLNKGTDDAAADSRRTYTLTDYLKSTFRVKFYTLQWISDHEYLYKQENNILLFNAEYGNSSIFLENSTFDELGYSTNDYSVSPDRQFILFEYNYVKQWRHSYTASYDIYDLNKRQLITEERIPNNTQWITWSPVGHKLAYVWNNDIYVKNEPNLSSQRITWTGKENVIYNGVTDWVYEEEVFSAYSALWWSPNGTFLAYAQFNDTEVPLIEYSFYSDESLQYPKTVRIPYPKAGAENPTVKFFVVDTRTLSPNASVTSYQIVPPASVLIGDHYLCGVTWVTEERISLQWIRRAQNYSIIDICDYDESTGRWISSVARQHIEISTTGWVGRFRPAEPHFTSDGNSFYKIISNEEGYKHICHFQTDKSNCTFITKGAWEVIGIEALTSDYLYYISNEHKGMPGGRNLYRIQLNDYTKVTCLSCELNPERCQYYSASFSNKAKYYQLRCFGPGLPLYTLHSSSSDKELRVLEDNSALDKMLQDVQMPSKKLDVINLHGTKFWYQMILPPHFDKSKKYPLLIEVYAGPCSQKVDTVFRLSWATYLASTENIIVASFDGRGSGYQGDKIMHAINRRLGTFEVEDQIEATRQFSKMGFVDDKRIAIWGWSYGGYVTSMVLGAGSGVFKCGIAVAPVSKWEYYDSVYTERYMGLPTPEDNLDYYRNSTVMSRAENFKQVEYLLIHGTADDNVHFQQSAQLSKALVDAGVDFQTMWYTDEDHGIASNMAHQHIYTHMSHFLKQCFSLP
T2 sequence (P22411 whole entry): as above

- half-life (DPP-4): > 12 h
- Intactness on incubation with DPP-4 (purified porcine DPP-4): remained fully intact
SMILES: CC[C@H](C)[C@H](NC(=O)[C@H](CO)NC(=O)[C@H](Cc1ccc(O)cc1)NC(=O)[C@H](CC(=O)O)NC(=O)[C@H](CO)NC(=O)[C@@H](NC(=O)[C@H](Cc1ccccc1)NC(=O)[C@@H](NC(=O)CNC(=O)[C@H](CCC(=O)O)NC(=O)[C@@H](C)NC(=O)[C@@H](N)Cc1ccc(O)cc1)[C@@H](C)O)[C@@H](C)CC)C(=O)N[C@@H](C)C(=O)N[C@@H](CCSC)C(=O)N[C@@H](CC(=O)O)C(=O)N[C@@H](CCCCN)C(=O)N[C@H](C(=O)N[C@@H](Cc1c[nH]cn1)C(=O)N[C@@H](CCC(N)=O)C(=O)N[C@@H](CCC(N)=O)C(=O)N[C@@H](CC(=O)O)C(=O)N[C@@H](Cc1ccccc1)C(=O)N[C@H](C(=O)N[C@@H](CC(N)=O)C(=O)N[C@@H](Cc1c[nH]c2ccccc12)C(=O)N[C@@H](CC(C)C)C(=O)N[C@@H](CC(C)C)C(=O)N[C@@H](C)C(=O)N[C@@H](CCC(N)=O)C(=O)N[C@@H](CCCCN)C(=O)NCC(=O)N[C@@H](CCCCN)C(=O)N[C@@H](CCCCN)C(=O)N[C@@H](CC(N)=O)C(=O)N[C@@H](CC(=O)O)C(=O)N[C@@H](Cc1c[nH]c2ccccc12)C(=O)N[C@@H](CCCCN)C(=O)N[C@@H](Cc1c[nH]cn1)C(=O)N[C@@H](CC(N)=O)C(=O)N[C@H](C(=O)N[C@H](C(=O)N[C@@H](CCC(N)=O)C(=O)O)[C@@H](C)O)[C@@H](C)CC)C(C)C)[C@@H](C)CC [(DAla2)GIP, TYR-(d)ALA-GLU-GLY-THR-PHE-ILE-SER-ASP-TYR-SER-ILE-ALA-MET-ASP-LYS-ILE-HIS-GLN-GLN-ASP-PHE-VAL-ASN-TRP-LEU-LEU-ALA-GLN-LYS-GLY-LYS-LYS-ASN-ASP-TRP-LYS-HIS-ASN-ILE-THR-GLN]
- Metabolic response to GIP Blood glucose AUC (high fat fed mice [1]; [3]): 1029.5 ± 138.0* mmol/l · min
- Metabolic response to GIP Plasma insulin AUC (high fat fed mice [1]; [3]): 142.3 ± 19.2**^,ΔΔΔ ng/ml · min
- Glucose lowering and insulin releasing actions of native GIP (high fat fed mice [1]; 21 days treatment): significantly (P<0.05) improved
- Decrease of overall blood glucose AUC in response to GIP vs saline treated control mice (high fat fed mice [1]; 21 days treatment, P<0.05): 36%
- GIP-induced elevations of plasma insulin (AUC) (high fat fed mice [1]; 21 days treatment, vs high fat controls): significantly (P<0.05 to P<0.01) augmented
- Pancreatic islet area and beta cell area (high fat fed mice [2]; 21 days twice daily 25 nmol/kg): no significant effect
- Pancreatic alpha cell area (high fat fed mice [2]; 21 days twice daily 25 nmol/kg, vs high fat controls): decreased (P<0.001)
- Number of islets per mm2 (high fat fed mice [2]; 21 days, vs all other groups of mice): significantly (P<0.05 to P<0.01) augmented
